# According to patent publication US20110124661A1, “OXAZOLOBENZIMIDAZOLE DERIVATIVES” (MERCK SHARP & DOHME CORP., priority 2008, published 2011):
# Target: T1, recombinant human mGluR2 (Homo sapiens, UniProt Q14416)
# T1 construct: expressed in transfected cells
# Experiment: FLIPR Ca2+ mobilization assay, potentiation of glutamate response
# Assay type: cell-based
# Conditions: potentiation after EC20 glutamate (900 nM); CHO dhfr- cells expressing human mGluR2 and Gα16; read-out: Representative FLIPR EC50 Values
# Protocol: Inhibition constants are determined as follows. The compounds of the present invention may be tested in a […] (FLIPR) based assay. This assay is a common functional assay to monitor Ca^2+ mobilization in whole cells expressing recombinant receptor coupled with a promiscuous G-protein. CHO dhfr-cells stably expressing recombinant human mGluR2 and Gα16 loaded with Fluo-4 AM (Invitrogen, Carlsbad Calif.) are treated with dose responses of compounds and the Ca^2+ response is monitored on a FLIPR384 (Molecular Devices, Sunnydale Calif.) for agonist activity. The potentiation response is monitored after a subsequent addition of an EC20 concentration of glutamate (900 nM). The maximum calcium response at each concentration of compound for agonist or potentiation are plotted as dose responses and the curves are fitted with a four parameters logistic equation giving EC50 and Hill coefficient using the iterative non linear curve fitting software program.
# T1 sequence (Q14416 19-872): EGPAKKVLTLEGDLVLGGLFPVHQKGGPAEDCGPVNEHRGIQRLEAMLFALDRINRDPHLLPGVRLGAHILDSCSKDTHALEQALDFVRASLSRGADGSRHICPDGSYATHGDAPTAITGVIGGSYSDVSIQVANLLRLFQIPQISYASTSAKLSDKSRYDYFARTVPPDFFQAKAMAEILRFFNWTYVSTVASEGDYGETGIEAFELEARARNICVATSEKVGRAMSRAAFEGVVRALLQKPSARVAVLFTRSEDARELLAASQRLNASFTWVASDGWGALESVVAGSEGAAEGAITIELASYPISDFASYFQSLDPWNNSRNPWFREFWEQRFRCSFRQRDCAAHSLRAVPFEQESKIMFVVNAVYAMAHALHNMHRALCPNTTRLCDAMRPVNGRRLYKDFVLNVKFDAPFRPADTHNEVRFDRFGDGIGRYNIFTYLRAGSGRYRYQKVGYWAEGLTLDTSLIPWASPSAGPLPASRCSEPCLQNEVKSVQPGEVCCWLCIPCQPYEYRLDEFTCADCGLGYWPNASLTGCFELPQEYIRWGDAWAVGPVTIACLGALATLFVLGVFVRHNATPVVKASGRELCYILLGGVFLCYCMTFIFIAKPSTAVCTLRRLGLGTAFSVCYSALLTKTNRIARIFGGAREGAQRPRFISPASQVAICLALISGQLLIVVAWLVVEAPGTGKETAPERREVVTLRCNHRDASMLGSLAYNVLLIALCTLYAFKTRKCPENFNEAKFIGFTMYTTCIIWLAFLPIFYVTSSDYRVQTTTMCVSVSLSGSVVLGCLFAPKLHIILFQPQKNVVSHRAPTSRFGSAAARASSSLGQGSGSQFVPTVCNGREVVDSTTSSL
row,EC50,Molecule
1,261 nM,"CC(C)(C)c1ccc(OCC2Cn3c(nc4cccnc43)O2)cc1 (racemic) [Example 2-16, (RS)-2-[(4-tert-butylphenoxy)methyl]-2,3-dihydro[1,3]oxazolo[2′,3′:2,3]imidazo[4,5-b]pyridine]"
2,28 nM,"CC(C)(C)c1ccc(OC[C@@H]2Cn3c(nc4cc(C#N)ccc43)O2)cn1 [Example 1-6, (2S)-2-{[(6-tert-butylpyridin-3-yl)oxy]methyl}-2,3-dihydro[1,3]oxazolo[3,2-a]benzimidazole-7-carbonitrile]"
3,206 nM,"CC(C)(C)c1cc(OC[C@@H]2Cn3c(nc4cc(C#N)ccc43)O2)ccn1 [Example 1-12, (2S)-2-{[(2-tert-butylpyridin-4-yl)oxy]methyl}-2,3-dihydro[1,3]oxazolo[3,2-a]benzimidazole-7-carbonitrile]"
4,58 nM,"CC(C)(C)c1ccc(OC[C@@H]2Cn3c(nc4cc(F)c(F)cc43)O2)cn1 [Example 1-17, (2S)-2-{[(6-tert-bulylpyridin-3-yl)oxy]methyl}-6,7-difluoro-2,3-dihydro[1,3]oxazolo[3,2-a]benzimidazole]"
5,507 nM,"FC(F)(F)c1ccc(OC[C@@H]2Cn3c(nc4ccccc43)O2)cn1 [Example 1-21, (2S)-2-({[6-(trifluoromethyl)yridine-3-yl]oxy}methyl)-2,3-dihydro[1,3]oxazolo[3,2-a]benzimidazole]"

row,Molecule,EC50
1,"(2S)-2-{[4-(2,2,2-trifluoro-1,1-dimethylethyl)phenoxy]methyl}-2,3-dihydro[1,3]oxazolo[3′,2′:1,2]imidazo[4,5-c]pyridine [Example 2-8]",21 nM
